System: G. vag strain 14.2
Assay: antibiotic synergy testing, checkerboard cross dilution method in broth cultures
Format: cell-based, Gardnerella vaginalis
Settings: Gardnerella vaginalis, 14.2; 32 mg/mL clindamycin, 24 hr; read-out: growth inhibited

## CCC[C@@H]1C[C@@H](C(=O)N[C@@H]([C@H]2O[C@H](SC)[C@H](O)[C@@H](O)[C@H]2O)[C@H](C)Cl)N(C)C1 [clindamycin, reference compound]
  inhibition at 32000 µg/mL: 27.4%

From patent publication US20230293578A1, “TREATMENT OF BACTERIAL VAGINOSIS” (priority 2020, published 2023)
